Measured values reported in patent EP0051773A1, “Penicillins, their salts, process for their preparation and pharmaceutical compositions containing them” (Dr. Karl Thomae GmbH, priority 1980, dated 1982).
≈ marks a conversion by molar mass, not a printed value.

Legend:
[1] = test system: Enterobacter cloacae ATCC 13 047; assay: serial dilution test in microtiter system (bacteriostasis, MIC); format: cell-based; conditions: ATCC13, liquid medium, 18 to 20 h at 37°C, read-out: MHK-Werte Eb. cloacae 13 047
Protocol: (§1) Für die Untersuchungen wurde die Methode des Reihenverdünnungstestes im Mikrotitersystem angewandt. Die Prüfung der Substanzen auf Bakteriostase erfolgte in flüssigem Medium. Es wurde die Bakteriostasewirkung bei folgenden Konzentrationen untersucht.
(§2) Es wurde ein Nährboden folgender Zusammensetzung benutzt: 10 g Pepton, 8 g Fleischextrakt-Oxoid, 3 g Natriumschlorid, 2 g sek. Natriumphosphat werden mit dest. Wasser auf 1000 ml aufgefüllt (pH 7,2-7,4). Lediglich bei der Testung gegen Streptokokken wurde 1% Glucose hinzugefügt. Das Alter der Primärkulturen betrug etwa 20 Stunden. Die Einstellung der Keimsuspension erfolgte am Photometer (nach "Eppendorf") (Reagenzglas-Durchmesser 14 mm, Filter 546 nm) anhand der Trübung einer Bariumsulfat-Vergleichssuspension, die durch eine Bariumsulfat-Aufschwemmung erzeugt wurde, welche durch die Zugabe von 3,0 ml 1%ige Bariumchloridlösung in 97 ml 1%ige Schwefelsäure entstand. Nach der Einstellung wurden Streptococcus Aronson im Verhältnis 1:15 und die übrigen Testkeime im Verhältnis 1:1500 mit einer Kochsalzlösung weiter verdünnt.
(§3) 16 mg der jeweiligen Substanz wurden in 10 ml-Meßkolben eingewogen und mit dem Lösungsmittel bis zur Marke aufgefüllt. Die weitere Verdünnungsreihe wurde mit destilliertem Wasser oder dem jeweiligen Lösungsmittel hergestellt.
(§4) Die Vertiefungen der Mikrotiterplatten wurden mit 0,2 ml Nährmedium, 0,01 ml der entsprechenden Substanzverdünnung und mit einem Tropfen Keimsuspension (0,01 ml) beschickt und 18 bis 20 Stunden bei 37°C bebrütet. Eine Lösungsmittelkontrolle wurde stets mitgeführt.
(§5) Die Ablesung wurde makroskopisch vorgenommen, wobei die jeweilige Grenkonzentration (= niedrigste noch bakteriostatisch wirksame Konzentration) ermittelt wurde.
(§6) Als Testorganismen wurden benützt: - Staphylococcus aureus SG 511, Escherichia coli ATCC 11 775, Pseudomonas aeruginosa Hamburgensis und Walter, Serratia marcescens ATCC 13 880, Klebsiella pneumoniae ATCC 10 031 und BC 6, Proteus mirabilis Hamburgensis, Proteus rettgeri BC 7 und Enterobacter cloacae ATCC 13 047.
(§7) In der folgenden Tabelle 2 sind die ermittelten minimalen Hemmkonzentrationen (MIC) für typische Vertreter der erfindungsgemäßen Verbindungen aufgeführt, wobei sich die Ziffern auf die Penicilline der Tabelle 1 Seite 18 beziehen.

[2] = test system: Escherichia coli ATCC 11 775; assay: as above; format: cell-based; conditions: ATCC11, liquid medium, 18 to 20 h at 37°C, read-out: MHK-Werte E.coli ATCC 11 755
Protocol: as §1, §2, §3, §4, §5, §6, §7

[3] = test system: Klebsiella pneumoniae ATCC 10 031; assay: as above; format: cell-based; conditions: ATCC10, liquid medium, 18 to 20 h at 37°C, read-out: MHK-Werte Kl. pneum. ATCC 10 031
Protocol: as §1, §2, §3, §4, §5, §6, §7

[4] = test system: Klebsiella pneumoniae BC 6; assay: as above; format: cell-based; conditions: BC6, liquid medium, 18 to 20 h at 37°C, read-out: MHK-Werte Kl. pneum. BC 6
Protocol: as §1, §2, §3, §4, §5, §6, §7

[5] = test system: Proteus mirabilis Hamburgensis; assay: as above; format: cell-based; conditions: liquid medium, 18 to 20 h at 37°C, read-out: MHK-Werte Prot. mir. Hbg.
Protocol: as §1, §2, §3, §4, §5, §6, §7

[6] = test system: Proteus rettgeri BC 7; assay: as above; format: cell-based; conditions: Providencia rettgeri, BC7; liquid medium, 18 to 20 h at 37°C; read-out: MHK-Werte Prot. rettg. BC 7
Protocol: as §1, §2, §3, §4, §5, §6, §7

[7] = test system: Pseudomonas aeruginosa Hamburgensis; assay: as above; format: cell-based; conditions: liquid medium, 18 to 20 h at 37°C, read-out: MHK-Werte Pseud. aerug. Hbg.
Protocol: as §1, §2, §3, §4, §5, §6, §7

[8] = test system: Pseudomonas aeruginosa Walter; assay: as above; format: cell-based; conditions: liquid medium, 18 to 20 h at 37°C, read-out: MHK-Werte Pseud. aerug. Walter
Protocol: as §1, §2, §3, §4, §5, §6, §7

[9] = test system: Serratia marcescens ATCC 13 880; assay: as above; format: cell-based; conditions: ATCC13, liquid medium, 18 to 20 h at 37°C, read-out: MHK-Werte Serr. marcesc. ATCC 13 880
Protocol: as §1, §2, §3, §4, §5, §6, §7

[10] = test system: Staphylococcus aureus SG 511; assay: as above; format: cell-based; conditions: SG511, liquid medium, 18 to 20 h at 37°C, read-out: MHK-Werte Staph. aureus SG 511
Protocol: as §1, §2, §3, §4, §5, §6, §7

[11] = test system: E.coli ATCC 11 775; assay: experimental intraperitoneal infection in mice, ED50 (survival); format: in vivo, Mäuse; conditions: Escherichia coli, ATCC 11 / ATCC 1175, sc, 168 h; female NMRI mice, i.p. infection, s.c. application, treated once, 7 days observation
Protocol: Eine Reihe der erfindungsgemäßen Verbindungen wurde in vivo bei experimentellen Infektionen an Mäusen untersucht. Man verwendete als pathogene Bakterien E.coli ATCC 11 775 und Pseudomonas aeruginosa Walter. Es wurde eine intraperitoneale Infektion mit 0,2 ml einer 5%igen Mucinsuspension der Bakterien gesetzt. Dies entspricht etwa 2x10^6 Keime E.coli bzw. 8x10^5 Keime Pseudomonas/Maus. Weibliche Mäuse vom Stamm NMRI wurden in Gruppen von jeweils 10 Tieren aufgeteilt, zwei Gruppen blieben unbehandelt, die restlichen Gruppen wurden mit verschiedenen Dosen der jeweiligen erfindungsgemäßen Penicilline zur Bestimmung der ED50 (Dosis, bei der 50 % der Tiere überleben) behandelt. Bei der E.coli-Infektion wurde einmal therapiert. Bei der Pseudomonas-Infektion wurde dreimal behandelt.
Der Beobachtungszeitraum betrug in beiden Fällen 7 Tage. Die Ergebnisse dieser Teste mit repräsentativen Vertretern der erfindungsgemäßen Penicilline sind in der Tabelle 3 dargestellt.

MIC [1] [µg/mL] | MIC [2] [µg/mL] | MIC [3] [µg/mL] | MIC [4] [µg/mL] | MIC [5] [µg/mL] | MIC [6] [µg/mL] | MIC [7] [µg/mL] | MIC [8] [µg/mL] | MIC [9] [µg/mL] | MIC [10] [µg/mL] | SMILES | ED50 [11] [mg/kg]
2 (≈ 2.85 µM) | 0.25 (≈ 0.357 µM) | 1 (≈ 1.43 µM) | 1 (≈ 1.43 µM) | 0.12 (≈ 0.171 µM) | 1 (≈ 1.43 µM) | 2 (≈ 2.85 µM) | 2 (≈ 2.85 µM) | 0.25 (≈ 0.357 µM) | 0.5 (≈ 0.714 µM) | CN(C)S(=O)(=O)c1ccc(Nc2ncc(NC(=O)N[C@@H](C(=O)N[C@@H]3C(=O)N4[C@@H]3SC(C)(C)[C@@H]4C(=O)O)c3ccc(O)cc3)c(O)n2)cc1 [Verbindung 15] | 
1 (≈ 1.41 µM) | 0.25 (≈ 0.354 µM) | 2 (≈ 2.83 µM) | 2 (≈ 2.83 µM) | 0.25 (≈ 0.354 µM) | 0.5 (≈ 0.707 µM) | 2 (≈ 2.83 µM) | 1 (≈ 1.41 µM) | 0.25 (≈ 0.354 µM) | 0.25 (≈ 0.354 µM) | CC1(C)S[C@@H]2[C@H](NC(=O)[C@H](NC(=O)Nc3cnc(Nc4ccc(S(N)(=O)=O)cc4)nc3O)c3ccc(O)c(Cl)c3)C(=O)N2[C@H]1C(=O)O [Verbindung 4] | 6.1
8 (≈ 16.5 µM) | 2 (≈ 4.12 µM) | 32 (≈ 65.9 µM) | 32 (≈ 65.9 µM) | 0.25 (≈ 0.515 µM) | 1 (≈ 2.06 µM) | 8 (≈ 16.5 µM) | 8 (≈ 16.5 µM) | 0.5 (≈ 1.03 µM) |  | CC1(C)S[C@@H]2[C@H](NC(=O)[C@H](NC(=O)Nc3cnccc3O)c3ccccc3)C(=O)N2[C@H]1C(=O)O [C, D-α-[(4-Hydroxy-3-pyridyl)-ureido]-benzylpenicillin-Natrium, reference compound] | 
0.5 (≈ 0.745 µM) | 0.12 (≈ 0.179 µM) | 0.5 (≈ 0.745 µM) | 1 (≈ 1.49 µM) | 0.03 (≈ 0.0447 µM) | 0.5 (≈ 0.745 µM) | 1 (≈ 1.49 µM) | 2 (≈ 2.98 µM) | 0.12 (≈ 0.179 µM) | 0.12 (≈ 0.179 µM) | CNS(=O)(=O)c1ccc(Nc2ncc(NC(=O)N[C@@H](C(=O)N[C@@H]3C(=O)N4[C@@H]3SC(C)(C)[C@@H]4C(=O)O)c3ccccc3)c(O)n2)cc1 [Verbindung 8] | 
4 (≈ 5.96 µM) | 0.5 (≈ 0.745 µM) | 4 (≈ 5.96 µM) | 4 (≈ 5.96 µM) | 0.25 (≈ 0.373 µM) | 0.5 (≈ 0.745 µM) | 2 (≈ 2.98 µM) | 4 (≈ 5.96 µM) | 0.5 (≈ 0.745 µM) | 0.5 (≈ 0.745 µM) | CC1(C)SC2C(NC(=O)C(NC(=O)Nc3cnc(Nc4ccc(C(N)=O)cc4)nc3O)c3ccc(O)c(Cl)c3)C(=O)N2C1C(=O)O (centres unmarked) [Verbindung 35] | 
 |  |  |  |  |  |  |  |  |  | CCCCNS(=O)(=O)c1ccc(Nc2ncc(NC(=O)N[C@@H](C(=O)N[C@@H]3C(=O)N4[C@@H]3SC(C)(C)[C@@H]4C(=O)O)c3ccc(O)cc3)c(O)n2)cc1 [Verbindung 20] | 6.6
1 (≈ 1.4 µM) | 0.12 (≈ 0.168 µM) | 1 (≈ 1.4 µM) | 0.5 (≈ 0.7 µM) | 0.06 (≈ 0.0841 µM) | 0.25 (≈ 0.35 µM) | 2 (≈ 2.8 µM) | 1 (≈ 1.4 µM) | 0.12 (≈ 0.168 µM) | 0.12 (≈ 0.168 µM) | CCCCS(=O)(=O)c1ccc(Nc2ncc(NC(=O)NC(C(=O)NC3C(=O)N4C3SC(C)(C)C4C(=O)O)c3ccc(O)cc3)c(O)n2)cc1 (centres unmarked) [Verbindung 32] | 
2 (≈ 3.02 µM) | 0.5 (≈ 0.754 µM) | 2 (≈ 3.02 µM) | 1 (≈ 1.51 µM) | 0.06 (≈ 0.0905 µM) | 0.5 (≈ 0.754 µM) | 4 (≈ 6.04 µM) | 2 (≈ 3.02 µM) | 0.25 (≈ 0.377 µM) | 0.12 (≈ 0.181 µM) | CC1(C)S[C@@H]2[C@H](NC(=O)[C@H](NC(=O)Nc3cnc(Nc4ccc(S(N)(=O)=O)cc4)nc3O)c3cccs3)C(=O)N2[C@H]1C(=O)O [Verbindung 2] | 
